One assay has as its target OGA (S400 O-GLCNAC) (Homo sapiens (Human), UniProt O60502). Nature of the assay: Cellular OGA-Tau MSD Assay. To be noted: HEK-293T cells transfected with OGT and Tau-V5; Tau-S400-GlcNAc MSD readout. It counts as cell-based. As for the experimental part:
HEK-293T cells were transfected with OGT and Tau-V5 plasmids using Lipofectamine and grown overnight. Next day, the cells were collected and re-plated at 1×10^5 cells per well in 96 well plates. Cells were incubated for 4 hr at 37° C., before compounds were added at 1 uM, with 3-fold dilutions in a 10-point titration. Cell plates were incubated with compounds overnight at 37° C. The next day media was removed from wells by gentle aspiration and 120 ul of 1× Cell Lysis buffer mixed with protease and phosphatase cocktail added to each well. A freeze thaw was performed at −80° C., then mixed before transferring 50 μl to MSD plates coated with V5-tag antibody to capture Tau. MSD Plates were incubated overnight at 4° C., on a plate shaker. The following day, plates were washed and incubated with Tau-S400-GlcNAc antibody for 2 hr and then developed with rabbit Sulfo-tag antibody. Final read out was carried out on an MSD 600 reader. The data was analyzed using Graph Pad or Genedata, the data was normalized and % activity versus log of compound concentration was plotted. The ICso values were obtained from a 4 parameter fit.

The target of assay [1] is Recombinant full length human OGA enzyme (Homo sapiens (Human), UniProt O60502). Nature of the assay: OGA Enzyme Inhibition Biochemical Assay. Particulars: 1 nM OGA, 100 μM 4-MUGlcNAc, 90 minutes, pH 6.4. As for the experimental part:
Recombinant full length human OGA enzyme was purchased from Origene. 4-MUGlcNAc substrate was purchased from Sigma. All other reagents were purchased from Sigma or Fisher. Assay buffer consists of the McIlvaine buffer system, pH 6.4 (0.2M Na2HPO4 mixed with 0.1M citric acid) and 0.01% BSA. […] Reactions were incubated for 90 minutes at room temperature and quenched with 40 μl of 3M glycine, pH 10 and read on a Perkin Elmer Envision plate reader (Ex: 355 nm/Em: 460 nm). Compounds were tested with a 10-point dose-response starting from 20 μM with a 4-fold dilution. Data was fit using GraphPad Prism using a 4-parameter fit with variable slope.

These results are taken from patent US12565504B2, “Spirocyclic O-glycoprotein-2-acetamido-2-deoxy-3-d-glucopyranosidase inhibitors” (BIOGEN MA INC., priority 2019, dated 2026).

Recombinant full length human OGA enzyme, sequence (O60502 whole entry): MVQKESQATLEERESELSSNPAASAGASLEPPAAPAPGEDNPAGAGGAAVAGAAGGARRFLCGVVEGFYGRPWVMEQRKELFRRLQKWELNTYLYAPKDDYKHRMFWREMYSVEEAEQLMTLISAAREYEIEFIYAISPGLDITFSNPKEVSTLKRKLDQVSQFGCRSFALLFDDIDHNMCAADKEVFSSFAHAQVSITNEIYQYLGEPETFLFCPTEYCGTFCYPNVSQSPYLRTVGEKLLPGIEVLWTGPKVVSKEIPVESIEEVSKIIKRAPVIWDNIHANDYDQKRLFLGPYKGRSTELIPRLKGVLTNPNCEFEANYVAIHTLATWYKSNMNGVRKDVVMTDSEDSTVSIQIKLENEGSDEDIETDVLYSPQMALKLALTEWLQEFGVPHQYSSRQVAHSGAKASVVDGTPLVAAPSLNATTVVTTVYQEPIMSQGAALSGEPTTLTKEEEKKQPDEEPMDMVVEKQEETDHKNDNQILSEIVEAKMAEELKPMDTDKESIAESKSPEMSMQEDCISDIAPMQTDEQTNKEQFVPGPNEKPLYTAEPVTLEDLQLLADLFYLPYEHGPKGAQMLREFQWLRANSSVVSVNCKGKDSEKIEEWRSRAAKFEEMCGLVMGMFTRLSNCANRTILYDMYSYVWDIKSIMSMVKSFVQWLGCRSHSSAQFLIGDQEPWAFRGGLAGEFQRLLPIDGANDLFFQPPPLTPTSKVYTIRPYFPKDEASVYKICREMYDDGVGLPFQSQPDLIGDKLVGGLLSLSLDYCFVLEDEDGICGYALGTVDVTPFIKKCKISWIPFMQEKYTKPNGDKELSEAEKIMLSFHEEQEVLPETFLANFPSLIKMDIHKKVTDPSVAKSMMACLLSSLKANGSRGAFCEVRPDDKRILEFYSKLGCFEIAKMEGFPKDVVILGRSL
OGA (S400 O-GLCNAC), sequence (O60502 whole entry): as above

In general, IC50 refers to the concentration needed to halve the response being measured. Take `CC(=O)Nc1ncc(CN2C[C@@]3(Cc4cc(C5CC5)ncc4O3)C[C@@H]2C)s1` [Example 25, N-(5-(((2R,5′S)-5-Cyclopropyl-5′-methyl-3H-spiro[furo[2,3-c]pyridine-2,3′-pyrrolidin]-1′-yl)methyl)thiazol-2-yl)acetamide]: the IC50 at OGA (S400 O-GLCNAC) is 23 nM; in assay [1], 6 nM.
As for `CC(=O)Nc1ncc(CN2C[C@@]3(Cc4cc(C(F)F)ncc4O3)C[C@@H]2C)s1` [Example 27, N-(5-(((2R,5′S)-5-(Difluoromethyl)-5′-methyl-3H-spiro[furo[2,3-c]pyridine-2,3′-pyrrolidin]-1′-yl)methyl)thiazol-2-yl)acetamide], the IC50 on OGA (S400 O-GLCNAC) is 16 nM; in assay [1], 11 nM.
The like results for `CC(=O)Nc1nc(F)c(CN2C[C@@]3(Cc4cc(N(C)C)ncc4O3)C[C@@H]2C)s1` [Example 28, N-(5-(((2R,5′S)-5-(Dimethylamino)-5′-methyl-3H-spiro[furo[2,3-c]pyridine-2,3′-pyrrolidin]-1′-yl)methyl)-4-fluorothiazol-2-yl)acetamide] were, in that order, 1 nM and less than 1 nM.
Consider `CC(=O)Nc1nc(F)c(CN2C[C@@]3(Cc4cc(NC(C)C)ncc4O3)C[C@@H]2C)s1` [Example 30, N-(4-Fluoro-5-(((2R,5′S)-5-(isopropylamino)-5′-methyl-3H-spiro[furo[2,3-c]pyridine-2,3′-pyrrolidin]-1′-yl)methyl)thiazol-2-yl)acetamide], for which the IC50 was 8 nM on OGA (S400 O-GLCNAC) and less than 1 nM in assay [1].
For `CC(=O)Nc1nc(F)c(CN2C[C@@]3(Cc4cc(NC5CC5)ncc4O3)C[C@@H]2C)s1` [Example 31, N-(5-(((2R,5′S)-5-(Cyclopropylamino)-5′-methyl-3H-spiro[furo[2,3-c]pyridine-2,3′-pyrrolidin]-1′-yl)methyl)-4-fluorothiazol-2-yl)acetamide], the values for the IC50 (on OGA (S400 O-GLCNAC); in assay [1]) were 15 nM and less than 1 nM, respectively.
For `COCCN(C)c1cc2c(cn1)O[C@]1(C2)C[C@H](C)N(Cc2cnc(NC(C)=O)s2)C1` [Example 32, N-(5-(((2R,5′S)-5-((2-Methoxyethyl)(methyl)amino)-5′-methyl-3H-spiro[furo[2,3-c]pyridine-2,3′-pyrrolidin]-1′-yl)methyl)thiazol-2-yl)acetamide] the same measures were 7 nM and less than 1 nM.
Regarding `CC(=O)Nc1nc(F)c(CN2C[C@@]3(Cc4cc(N5CCC5)ncc4O3)C[C@@H]2C)s1` [Example 34, N-(5-(((2R,5′S)-5-(Azetidin-1-yl)-5′-methyl-3H-spiro[furo[2,3-c]pyridine-2,3′-pyrrolidin]-1′-yl)methyl)-4-fluorothiazol-2-yl)acetamide], the IC50 is 1 nM against OGA (S400 O-GLCNAC) and less than 1 nM in assay [1].
The like results for `CC(=O)Nc1ncc(CN2C[C@@]3(Cc4cc(N5CCOCC5)ncc4O3)C[C@@H]2C)s1` [Example 37, N-(5-(((2R,5′S)-5′-Methyl-5-morpholino-3H-spiro[furo[2,3-c]pyridine-2,3′-pyrrolidin]-1′-yl)methyl)thiazol-2-yl)acetamide] were, in that order, 9 nM and less than 1 nM.
`CC(=O)Nc1ncc(CN2C[C@@]3(Cc4cc(N5CCN(C)CC5)ncc4O3)C[C@@H]2C)s1` [Example 44, N-(5-(((2R,5′S)-5′-Methyl-5-(4-methylpiperazin-1-yl)-3H-spiro[furo[2,3-c]pyridine-2,3′-pyrrolidin]-1′-yl)methyl)thiazol-2-yl)acetamide]: the IC50 on OGA (S400 O-GLCNAC) is 13 nM; in assay [1] it was less than 1 nM.
For `CCOc1cc2c(cn1)O[C@]1(C2)C[C@H](C)N(Cc2sc(NC(C)=O)nc2F)C1` [Example 46, N-(5-(((2R,5′S)-5-Ethoxy-5′-methyl-3H-spiro[furo[2,3-c]pyridine-2,3′-pyrrolidin]-1′-yl)methyl)-4-fluorothiazol-2-yl)acetamide] the same measures were 3 nM and less than 1 nM.
For `COc1cnc2c(n1)CC1(C[C@H](C)N(Cc3sc(NC(C)=O)nc3F)C1)O2` (stereo partly drawn) [Example 50, N-(4-Fluoro-5-(((5′S)-2-methoxy-5′-methyl-7H-spiro[furo[2,3-b]pyrazine-6,3′-pyrrolidin]-1′-yl)methyl)thiazol-2-yl)acetamide] the same measures were 9 nM and 2.3 nM.
The like results for `CC(=O)Nc1nc(F)c(CN2CC3(Cc4nc(O)cnc4O3)C[C@@H]2C)s1` (stereo partly drawn) [Example 51, N-(4-fluoro-5-(((5′S)-2-hydroxy-5′-methyl-7H-spiro[furo[2,3-b]pyrazine-6,3′-pyrrolidin]-1′-yl)methyl)thiazol-2-yl)acetamide] were, in that order, 59 nM and 91 nM.
Consider `CC(=O)Nc1ncc(CN2CCCC3(CCc4ccccc43)C2)s1` (stereo not drawn) [Example 53, N-(5-((2,3-Dihydrospiro[indene-1,3′-piperidin]-1′-yl)methyl)thiazol-2-yl)acetamide], for which the IC50 against OGA (S400 O-GLCNAC) was 532 nM; in assay [1] it was 73 nM.
With `CC(=O)Nc1ncc(CN2CCCC3(C2)OCc2ccccc23)s1` (stereo not drawn) [Example 55, N-(5-((3H-Spiro[isobenzofuran-1,3′-piperidin]-1′-yl)methyl)thiazol-2-yl)acetamide], the IC50 on OGA (S400 O-GLCNAC) is 250 nM; in assay [1] it was 24.5 nM.
Turning to `CC(=O)Nc1nc(F)c(CN2CCCC3(C2)OCc2ccccc23)s1` (stereo not drawn) [Example 56, N-(5-((3H-Spiro[isobenzofuran-1,3′-piperidin]-1′-yl)methyl)-4-fluorothiazol-2-yl)acetamide], the IC50 amounted to 112 nM against OGA (S400 O-GLCNAC) and 17 nM in assay [1].
Take `CC(=O)Nc1nc(F)c(CN2CC3(C[C@@H]2C)OCc2ccccc23)s1` (stereo partly drawn) [Example 58, N-(4-Fluoro-5-(((5′S)-5′-methyl-3H-spiro[isobenzofuran-1,3′-pyrrolidin]-1′-yl)methyl)thiazol-2-yl)acetamide]: the IC50 came to 14 nM on OGA (S400 O-GLCNAC) and 4.2 nM in assay [1].
In the case of `CC(=O)Nc1ncc(CN2CC3(CCC2C)OCc2ccccc23)s1` (stereo not drawn) [Example 60, N-(5-((6′-Methyl-3H-spiro[isobenzofuran-1,3′-piperidin]-1′-yl)methyl)thiazol-2-yl)acetamide], the results for the IC50 (at OGA (S400 O-GLCNAC); in assay [1]) were more than 1000 nM and 1700 nM, respectively.
For `CC(=O)Nc1ncc(CN2CC3(C[C@@H]2C)OCc2cccnc23)s1` (stereo partly drawn) [Example 62, N-(5-(((5′S)-5′-Methyl-5H-spiro[furo[3,4-b]pyridine-7,3′-pyrrolidin]-1′-yl)methyl)thiazol-2-yl)acetamide], the figures for the IC50 (against OGA (S400 O-GLCNAC); in assay [1]) were 73 nM and 44 nM, respectively.
The like results for `CC(=O)Nc1ncc(CN2CCC3(C2)OCc2cnccc23)s1` (stereo not drawn) [Example 66, N-(5-((3H-Spiro[furo[3,4-c]pyridine-1,3′-pyrrolidin]-1′-yl)methyl)thiazol-2-yl)acetamide] were, in that order, 794 nM and 210 nM.
For `CC(=O)Nc1nc(F)c(CN2CCC3(C2)OCc2cnccc23)s1` (stereo not drawn) [Example 67, N-(5-((3H-Spiro[furo[3,4-c]pyridine-1,3′-pyrrolidin]-1′-yl)methyl)-4-fluorothiazol-2-yl)acetamide] the same measures were 1000 nM and 120 nM.
As to `CC(=O)Nc1ncc(CN2CC3(C[C@@H]2C)OCc2ncccc23)s1` (stereo partly drawn) [Example 80, N-(5-(((5′S)-5′-Methyl-7H-spiro[furo[3,4-b]pyridine-5,3′-pyrrolidin]-1′-yl)methyl)thiazol-2-yl)acetamide], the IC50 is 15 nM at OGA (S400 O-GLCNAC) and 49 nM in assay [1].
